A short description of series [1]: Caco-2 permeability screening. Type of series: in vitro ADME. The note with it: for Papp: Caco-2, ranked by Papp against control drugs, read-out: Permeability ranking; for efflux ratio at 20 µM: human. The protocol:
Caco-2 cells were received from American Type Culture Collection and certified mycoplasma free. Cells were seeded on transwell plates (CoStar, growth area 0.33 cm^2/well, polycarbonate membrane, 0.33 μm pore size) between passage 20 and 27 and then analyzed between 21 and 25 days after wells were seeded to ensure enterocyte-like differentiation. Before assessing permeability, cells were washed once with Hank’s Balanced Salt Solution buffer, pH 7.4, and then incubated at 37 °C for 30 minutes. Transepithelial electrical resistance (TEER) was measured after equilibration before the experiment using an epithelial volt-ohmmeter (EVOM, World Precision Instruments), and cells were used if TEER > 250 Ω × cm^2. Cells were dosed to measure permeability from basolateral and apical sides at a concentration of 20 μM of test compound and 50 μM of Lucifer yellow. Lucifer yellow was used as a “zero permeability” marker to monitor the integrity of cell barrier. Samples were taken at 0 and 60 minutes from the donor side, and samples were taken at 30 and 60 minutes from the receiver side; media was replenished after the 30-minute sample was taken from both chambers. A calibration curve was prepared by serial dilution using the dosing solution in a 1:5 dilution. […] Samples were prepared for LC-MS/MS analysis by taking 100 μL of sample, adding 1 μM internal standard (GaSal-4 or GaSal-5), and crashing with 400 μL of methanol. Samples were centrifuged at 3000 rpm at 4 °C for 30 minutes, 200 μL of supernatant was transferred to a new plate, and 100 μL of water was added to each sample. Samples were vortexed and analyzed by LC-MS/MS as described earlier. […] To preliminarily evaluate organic cation transporter 1 (OCT1) or P-glycoprotein (P-gp)-dependent transport, transport studies were conducted with and without a 1 μM “inhibitor cocktail” alongside GaSal. […] The Papp for basolateral to apical, Papp apical to basolateral, and efflux ratio were reported for each compound. In order to calculate Papp, the concentration in the sampled time point was determined from the calibration curve and then converted to μg based on the volume of the chamber (0.2 mL for apical, 1.0 mL for basolateral). […] The calculation of Papp was determined using eq. […] Data are presented as the average ± SEM for each compound analyzed as n = 3 on 2 different days with 2 different cell line passages, for n = 6 total. GaSal is n = 3 on 3 different cell line passages since this was used as a test compound for the inhibition cocktail experiments.
(In general: Caco-2 cells form a polarised layer with tight junctions and transporters.)

Series [2] in a line: Microsomal clearance assay. Type of series: in vitro ADME, rat. The protocol: Library compounds were tested in triplicate at a concentration of 2 μM and incubated in 0.1 M potassium phosphate buffer containing 12 mM MgCl2 and 8 mM NADPH at pH 7.4 with either 0.5 mg/mL of Sprague–Dawley liver microsomes (Invitrogen). Samples were incubated for 0, 3, 7, 12, 20, and 30 minutes. At the designated time point, the incubation reaction was stopped by adding 100 μL of ACN containing 1 μM of either GaSal-4 or GaSal-5 as the internal standards. […] 7-Ethoxycoumarin (Sigma) was used as a positive control in this experiment. Intrinsic clearance (CLint) was calculated using eq. 2:(2) CLint=0.693/InVitroT1/2∗IncubationVolume/mgofmicrosomes∗45mgmicrosomes/gramofliver∗45gramsliver/kgofbodyweight
The average CLint ± SEM was determined for each compound for 2 replicates per time point.

A short description of a further series: S9 clearance assay. Type of series: in vitro ADME. The note with it: average ± SEM n = 3; for CLint scaled: S9 rat liver fraction, 2 μM, read-out: Predicted CLint (converted); for half-life at 2 µM: pH 7.4, S9 rat liver fraction. The protocol:
Select library compounds were tested in triplicate at a concentration of 2 μM and incubated in 0.1 M potassium phosphate buffer containing 12 mM MgCl2 and 8 mM NADPH at pH 7.4 with 2.5 mg/mL of Sprague–Dawley S9 (Invitrogen). Incubations contained a final concentration of 2.5 mM UDP glucuronic acid, 0.10 mM adenosine 3’-phosphate 5’-phosphosulfate, 0.5 mM acetyl CoA, and 50 μg/mg protein alamethicin. All co-factors were from Sigma. Samples were incubated for 0, 3, 7, 12, 20, and 30 minutes. At the designated time point, the incubation reaction was stopped by adding 100 μL of ACN containing 1 μM of either GaSal-4 or GaSal-5 as the internal standard. […] A hundred microliter of supernatant was taken for LC-MS/MS analysis. 7-Ethoxycoumarin (Sigma) was used as a positive control in this experiment. Clearance was calculated according to eq. 3:(3) CLint=0.693/InVitroT1/2∗IncubationVolume/mgofS9∗165mgS9/gramofliver∗45gramsliver/kgofbodyweight
The average CLint ± SEM was determined for each compound for 3 replicates per time point.

The next series deals with CYP. Description: 7-Ethoxycoumarin metabolism in microsomes in the presence of GaSal analogs (possible CYP inhibition). Conditions: co-incubation with 7-ethoxycoumarin. Type of series: in vitro ADME, rat.
[3] abbreviates: Caco-2, 20 μM, 30 and 60 min, average ± SEM, read-out: Papp apical to basolateral.
Where [4] appears, read: Caco-2, 20 μM, 30 and 60 min, average ± SEM, read-out: Papp basolateral to apical.
Setting [5] is: Caco-2, 20 μM, read-out: Efflux ratio B to A/A to B.

SMILES strings stand for the structures. Like-named read-outs stand apart in the source and are kept apart here.

Usually half-life stands for the time needed for the level to fall by half in the phase considered. Higher therefore signals slow loss.

With `COCCOc1ccc(/C=N/c2ccccc2N=C(C)c2ccccc2O)c(O)c1.[Ga+3]` [GaSal-14], the Papp A→B in series [1] (setting [3]) was below 0.01 ×10⁻⁶ cm/s. Further, the Papp B→A in series [1] (setting [4]) amounted to 1.19 ± 0.4 ×10⁻⁶ cm/s. Moreover, the Papp in series [1] was below 1.12 ×10⁻⁶ cm/s.
With `COCCOc1ccc(/C=N/c2ccccc2/N=C/c2ccc(OCCOC)cc2O)c(O)c1.[Ga+3]` [GaSal-13], the Papp A→B in series [1] (setting [3]) amounted to 0.61 ± 0.01 ×10⁻⁶ cm/s. Moreover, in series [1] (setting [4]), the Papp B→A was determined as 0.91 ± 0.1 ×10⁻⁶ cm/s. For the same compound, the Papp in series [1] is below 1.12 ×10⁻⁶ cm/s. For the same compound, the efflux ratio at 20 µM in series [1] (setting [5]) was determined as 1.49.
In the case of `Oc1ccccc1/C=N/c1ccccc1/N=C/c1ccccc1O.[Ga+3]` [GaSal, gallium salophen], the Papp A→B was determined as 1.2 ± 0.01 ×10⁻⁶ cm/s in series [1] (setting [3]); 1.81 ± 0.03 ×10⁻⁶ cm/s in series [1] (Caco-2, with OCT1 inhibitor cocktail (1 μM verapamil and cisplatin), read-out: Papp Apical to Basolateral); 1.33 ± 0.03 ×10⁻⁶ cm/s in series [1] (Caco-2, with PGP inhibitor cocktail (1 μM cannabidiol and itraconazole), read-out: Papp Apical to Basolateral). The Papp B→A in series [1] (setting [4]) was 13.6 ± 1.78 ×10⁻⁶ cm/s; in series [1] (Caco-2, with OCT1 inhibitor cocktail (1 μM verapamil and cisplatin), read-out: Papp Basolateral to Apical), 14.7 ± 3.26 ×10⁻⁶ cm/s; in series [1] (Caco-2, with PGP inhibitor cocktail (1 μM cannabidiol and itraconazole), read-out: Papp Basolateral to Apical), 16.8 ± 3.86 ×10⁻⁶ cm/s. The Papp in series [1] is 1.12 to 3.51 ×10⁻⁶ cm/s. Besides, the efflux ratio at 20 µM in series [1] (setting [5]) came to 11.3; in series [1] (Caco-2, with OCT1 inhibitor cocktail, read-out: Efflux Ratio B to A/ A to B), 8.1; in series [1] (Caco-2, with PGP inhibitor cocktail, read-out: Efflux Ratio B to A/ A to B), 12.6. Besides, the CLint scaled in series [2] (2 μM, 0.5 mg/mL rat liver microsomes, NADPH, 30 min, read-out: experimental CLint (microsomes)) is 21.3 to 63 mL/min/kg; in “S9 clearance assay” it was 136 mL/min/kg. This compound also gave a half-life at 2 µM in the series “S9 clearance assay” of 0.59 ± 0.15 h. Also, the “7-ethoxycoumarin metabolism when co-incubated (possible CYP inhibition)” value in the series on CYP is recorded as “CYP inhibition”.
Turning to `Oc1cc(OCCN2CCOCC2)ccc1C=Nc1ccccc1N=Cc1ccc(OCCN2CCOCC2)cc1O.[Ga+3]` [GaSal-3], in series [1] (setting [3]), the Papp A→B was determined as 0.04 ± 0.01 ×10⁻⁶ cm/s. Also, the Papp B→A in series [1] (setting [4]) stood at 1.16 ± 0.09 ×10⁻⁶ cm/s. Also, the Papp in series [1] was below 1.12 ×10⁻⁶ cm/s. The efflux ratio at 20 µM in series [1] (setting [5]) turned out to be 29. Moreover, the “decrease in peak area over time” value in series [2] (rat liver microsomes, 30-minute period) is below 10%. Besides, in “S9 clearance assay”, the CLint scaled was 30.2 mL/min/kg and the half-life at 2 µM is 2.67 ± 1.21 h.
With `O=C(O)CCOc1ccc(C=Nc2ccccc2N=Cc2ccc(OCCC(=O)O)cc2O)c(O)c1.[Ga+3]` [GaSal-4], the Papp A→B in series [1] (setting [3]) is below 0.01 ×10⁻⁶ cm/s. Further, the Papp B→A in series [1] (setting [4]) turned out to be 1.44 ± 0.19 ×10⁻⁶ cm/s. In addition, the Papp in series [1] is below 1.12 ×10⁻⁶ cm/s. Also, in the series “S9 clearance assay”, the CLint scaled was 398 mL/min/kg and the half-life at 2 µM was 0.2 ± 0.1 h.
With `COCCOCCOc1ccc(C=Nc2ccccc2N=Cc2ccc(OCCOCCOC)cc2O)c(O)c1.[Ga+3]` [GaSal-5], the Papp A→B in series [1] (setting [3]) was 0.03 ± 0.01 ×10⁻⁶ cm/s. Also, the Papp B→A in series [1] (setting [4]) amounted to 3.2 ± 0.2 ×10⁻⁶ cm/s. Also, the Papp in series [1] was below 1.12 ×10⁻⁶ cm/s. For the same compound, the efflux ratio at 20 µM in series [1] (setting [5]) is 107. In addition, in the series “S9 clearance assay”, the CLint scaled is 27.8 mL/min/kg and the half-life at 2 µM is 2.88 ± 3.37 h.

Values taken from publication PMC12264554, “Application of preclinical absorption, distribution, metabolism, elimination in vitro techniques for the characterization and compound library optimization of novel antibiotic gallium salophen” (Drug Metabolism and Disposition, 2025).
